How the values were obtained:
[1] = test system: normal human neonatal prepuce epidermis keratinized cells (NHEK(F)); assay: Human epidermis keratinized cell proliferation assay (WST-8 cell counting); assay type: cell-based; details: for overall effect on cell proliferation ability as compared with the control: summary of the 24 and 48 hour experiments
Description: Human epidermis keratinized cells were cultured in the presence of chitin and chitosan as well as their derivatives, and change in proliferation ability of the cell was measured.
As the human epidermis cell, normal human neonatal prepuce epidermis keratinized cells (NHEK(F)) (Kurabo Biomedical, Osaka) were used.
A medium used for measuring NHEK(F) proliferation effect was obtained by adding 1 ml of a PSA solution (Kurabo Biomedical, Osaka) containing penicillin, streptomycin and amphoterin B, and 10% bovine fetus serum (Gibco, USA) to 500 ml of a basic medium for human epidermis keratinized cell HuMedia-KB2 (Kurabo Biomedical, Osaka).
Cells were cultured under 37° C., 5% CO2 and wet environments using a medium for proliferation and a flask for culturing (Lot No. 055522) (Nalge Nunc International, Denmark), and passed to quaternary culture and used in an experiment.
The medium was aspirated when proliferation of cells reach sub-confluent (60 to 80% of the flask bottom area), then, inside of the vessel was washed with HEPES, and 2 ml of trypsin was added to cause release of cells from the vessel bottom. The released cells were recovered by HEPES and added into the neutralization solution to terminate the reaction of trypsin, and then, precipitated by centrifugal separation (1100 rpm, 5 minutes), and the supernatant was discarded. The recovered cells were re-floated on a medium for proliferation, the live cell number was counted by a trypan blue discharge test, and then, transplanted into another flask for culturing so that the live cell concentration to the flask bottom area was […].
For measurement, cells were centrifugally separated, then, re-floated on a medium for measurement and adjusted at 30000 cells/ml to give a cell suspension which was then used.
Into each well of a 96-well multi-plate (Sumitomo Bakelite Co. Ltd., Tokyo), the cell suspension prepared in (1) was disseminated each in an amount of 100 μl at a concentration of 3000 cells/well. For stabilizing disseminated cells, previous culturing was carried out for 12 hours under 37° C., 5% CO2 and wet environments.
Next, into each well of the multi-plate, the chitin-based samples or chitosan-based samples controlled at respective concentrations were added each in an amount of 10 μl. The final concentrations of respective samples in this operation were 100, 10, 1 and 0.1 μg/ml, respectively. True culturing was carried out for 24 hours or 48 hours under 37° C., 5% CO2 and wet environments.
For counting the number of cells proliferated in the culturing, a reagent for measuring cell number (cell counting kit) WST-8 was added in an amount of 10 μl to each well of the multi-plate, and allowed to stand still under 37° C., 5% CO2 and wet environments for 1 to 4 hours to cause coloration. After coloration, the absorbance was measured using EASY READER EAR340AT (Medi-Con Corporation, Osaka). Numerical treatment and statistics of the measured data were carried out using a table calculation software (Microsoft Excel xp (R)).
The cell number and absorbance show a proportional correlation (FIG. 2, Table 2), and this graph gave a calibration curve:
A cell number in dissemination of 3000 was subtracted from the cell number obtained from this calibration curve to give a proliferated cell number (cells/well).

[2] = test system: skin deficient wound; assay: Skin deficient wound mouse model, skin regeneration; assay type: in vivo
Description: Fresh skin deficient wound was made using mice and a skin regeneration promoting effect of GlcNAc was studied. As a control, chitin in the form of gel (Chitosan Kowa K.K.) and physiological saline were used. (i) Eight 8-weeks female mice: BALB/c having a body weight of 20 to 25 g were used. In the experiment, one week-conditioning period was set. (ii) An N-acetyl-D-glucosamine (GlcNAc) powder (Seikagaku Kogyo K.K., Tokyo) was diluted in physiological saline so that its concentration was 10 mg/ml, and then, sterilized by filtration through a 0.22 μm millipore filter to give stock solution the stock solution was then diluted with sterile physiological saline to 10 μg/ml and used. (iii) chitin in the form of gel (Chitosan Kowa, Tokyo). Hereinafter, referred to as “chitin gel”. (iv) GlcNAc was blended in chitin gel so that its concentration was 10 μg/g and the blend was used. Hereinafter, the blend is referred to as “chitin gel+GlcNAc”. (i) Production of skin deficient model: Pentobarbital (trade name: Nembutal injection) was diluted 10-fold with physiological saline, and then, administered intraperitoneally to a mouse at 0.005 ml/g. After a sufficient anesthetic effect was confirmed, hair at the back of the mouse was shaved by a hair clipper, and the skin was disinfected with alcohol, and then, a round skin deficient region having a diameter of 5 mm was made using a 5 mm derma punch (FIG. 9). These eight mice were classified into “chitin gel group”, “chitin gel+GlcNAc group”, “GlcNAc group” and “physiological saline group” each containing two mice, and each group was applied once a day. (ii) “chitin gel group” and “chitin gel+GlcNAc group” were directly applied to the skin deficient region for 7 days each at 0.1 g/head, and “GlcNAc group” and “physiological saline group” were each at 1 ml/head. (iii) On 8th and later days, the crust formed was removed directly before application of each group, and application was carried out for further 8 days in the same manner as described above. The size of the skin damage repair region was measured on 8th and 16th days using calipers. Staining method: The skin deficiency repair region was collected, and fixed with a 10% neutral buffer formalin aqueous solution (formaldehyde solution). The repair region was excised to give a longitudinal section, and then, embedded in paraffin according to an ordinary method and sliced into 5 μm by a microtome. It was stained by hematoxylin-eosin staining.

[3] = 24 hours after addition, 0.1 μg/ml
[4] = 24 hours after addition, 1 μg/ml
[5] = 24 hours after addition, 10 μg/ml
[6] = 24 hours after addition, 100 μg/ml
[7] = 48 hours after addition, 0.1 μg/ml
[8] = 48 hours after addition, 1 μg/ml
[9] = 48 hours after addition, 10 μg/ml
[10] = 48 hours after addition, 100 μg/ml
[11] = 5 mm skin deficient region, applied once a day for 16 days
[12] = hematoxylin-eosin staining of the repair region

## N[C@H]1C(O)O[C@H](CO)[C@@H](O)[C@@H]1O (stereo partly drawn) [GlcN, D-Glucosamine, reference compound]
[1]; [3]
  average cell proliferation number: 587 ± 134 cell/well
[1]; [4]
  average cell proliferation number: 766 ± 114 cell/well
[1]; [5]
  average cell proliferation number: 634 ± 65 cell/well
[1]; [6]
  average cell proliferation number: 689 ± 34 cell/well
[1]; 24 hours, 1 μg/ml
  proliferation effect as compared with the control (p<0.05): significant proliferation stimulating effects
[1]; 24 hours, 10 μg/ml
  proliferation effect as compared with the control (p<0.05): significant proliferation stimulating effects
[1]; 24 hours, 100 μg/ml
  proliferation effect as compared with the control (p<0.05): significant proliferation stimulating effects
[1]; [7]
  average cell proliferation number: 1616 ± 244 cell/well
[1]; [8]
  average cell proliferation number: 2108 ± 344 cell/well
[1]; [9]
  average cell proliferation number: 1839 ± 160 cell/well
[1]; [10]
  average cell proliferation number: 1758 ± 424 cell/well
[1]; 48 hours, 1 μg/ml
  proliferation effect as compared with the control (p<0.05): significant proliferation stimulating effect
[1]
  overall effect on cell proliferation ability as compared with the control: significant effect of stimulating cell proliferation ability

## CC(=O)N[C@H]1C(O)O[C@H](CO)[C@@H](O)[C@@H]1O (stereo partly drawn) [GlcNAc, N-Acetyl-D-Glucosamine]
[2]; [11]
  visual observation: epidermis / skin formation: complete cutization was recognized
  visual observation: excess granulation: excess granulation did not occur
[2]; compared with physiological saline and chitin gel
  overall skin regenerating effect in a mouse: more excellent than physiological saline and chitin gel
[2]; [12]
  histological observation: hypodermis: leaves a slight granulation tissue at the center portion
  histological observation: regeneration of skin / epidermis: skin regeneration is completed
[1]; [3]
  average cell proliferation number: 601 ± 39 cell/well
[1]; [4]
  average cell proliferation number: 774 ± 158 cell/well
[1]; [5]
  average cell proliferation number: 636 ± 51 cell/well
[1]; [6]
  average cell proliferation number: 628 ± 73 cell/well
[1]; 24 hours, 1 μg/ml
  proliferation effect as compared with the control (p<0.05): significant proliferation stimulating effects
[1]; 24 hours, 10 μg/ml
  proliferation effect as compared with the control (p<0.05): significant proliferation stimulating effects
[1]; 24 hours, 100 μg/ml
  proliferation effect as compared with the control (p<0.05): significant proliferation stimulating effects
[1]; [7]
  average cell proliferation number: 1312 ± 169 cell/well
[1]; [8]
  average cell proliferation number: 2372 ± 415 cell/well
[1]; [9]
  average cell proliferation number: 2155 ± 175 cell/well
[1]; [10]
  average cell proliferation number: 2128 ± 165 cell/well
[1]; 48 hours, 1 μg/ml
  proliferation effect as compared with the control (p<0.05): significant proliferation stimulating effects
[1]; 48 hours, 10 μg/ml
  proliferation effect as compared with the control (p<0.05): significant proliferation stimulating effects
[1]; 48 hours, 100 μg/ml
  proliferation effect as compared with the control (p<0.05): significant proliferation stimulating effects
[1]
  overall effect on cell proliferation ability as compared with the control: significant effect of stimulating cell proliferation ability

Source: patent US20090048210A1, “AGENT FOR THERAPY OR TREATMENT OF WOUND” (priority 2004, published 2009)
